The kinase profiling compilation of Christmann-Franck et al. (2016)
One block for each compound: values may come before it.

What was measured:
Experiment in all cases: KINOMEscan competition binding
Conditions in all cases: compound 10.0 µM
[1] = test system: EGFR (human), P00533 [746-750 del]
KDR (human) = KDR (human) (UniProt P35968)
[2] = test system: KIT (human), P10721 [V559D]
RAF1 (human) = RAF1 (human) (UniProt P04049)
FGFR3 (human) = FGFR3 (human) (UniProt P22607)
RPS6KA5 KD1 (human) = RPS6KA5 KD1 (human) (UniProt O75582)
RPS6KA5 KD1 (human), sequence (O75582 whole entry, looked up): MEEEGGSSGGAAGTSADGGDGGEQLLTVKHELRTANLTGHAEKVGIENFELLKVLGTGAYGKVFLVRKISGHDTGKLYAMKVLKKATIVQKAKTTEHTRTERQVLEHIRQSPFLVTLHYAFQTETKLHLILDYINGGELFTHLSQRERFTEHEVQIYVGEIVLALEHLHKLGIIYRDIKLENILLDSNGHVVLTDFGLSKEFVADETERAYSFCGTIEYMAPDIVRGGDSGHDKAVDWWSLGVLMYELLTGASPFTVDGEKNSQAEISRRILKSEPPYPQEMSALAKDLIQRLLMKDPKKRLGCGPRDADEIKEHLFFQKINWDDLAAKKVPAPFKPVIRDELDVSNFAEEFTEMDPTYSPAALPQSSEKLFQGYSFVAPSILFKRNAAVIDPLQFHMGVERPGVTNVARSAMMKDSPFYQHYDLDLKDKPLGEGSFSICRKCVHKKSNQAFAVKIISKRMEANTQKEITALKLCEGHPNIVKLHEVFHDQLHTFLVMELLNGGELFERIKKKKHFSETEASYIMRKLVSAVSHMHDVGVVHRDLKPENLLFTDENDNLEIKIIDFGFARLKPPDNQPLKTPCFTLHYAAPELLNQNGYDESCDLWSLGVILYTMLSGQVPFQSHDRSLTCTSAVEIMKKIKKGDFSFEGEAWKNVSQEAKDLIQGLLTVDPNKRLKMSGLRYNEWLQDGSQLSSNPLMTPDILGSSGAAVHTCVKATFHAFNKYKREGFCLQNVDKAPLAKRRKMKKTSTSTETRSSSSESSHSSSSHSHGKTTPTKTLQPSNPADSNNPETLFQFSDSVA

CDKL2 (human) = CDKL2 (human) (UniProt Q92772)
TNK1 (human) = TNK1 (human) (UniProt Q13470)
[3] = test system: EGFR (human), P00533 [G719C]
DDR2 (human) = DDR2 (human) (UniProt Q16832)
ALK (human) = ALK (human) (UniProt Q9UM73)
CDK9 (human) = CDK9 (human) (UniProt P50750)
CDK9 (human), sequence (P50750 whole entry, looked up): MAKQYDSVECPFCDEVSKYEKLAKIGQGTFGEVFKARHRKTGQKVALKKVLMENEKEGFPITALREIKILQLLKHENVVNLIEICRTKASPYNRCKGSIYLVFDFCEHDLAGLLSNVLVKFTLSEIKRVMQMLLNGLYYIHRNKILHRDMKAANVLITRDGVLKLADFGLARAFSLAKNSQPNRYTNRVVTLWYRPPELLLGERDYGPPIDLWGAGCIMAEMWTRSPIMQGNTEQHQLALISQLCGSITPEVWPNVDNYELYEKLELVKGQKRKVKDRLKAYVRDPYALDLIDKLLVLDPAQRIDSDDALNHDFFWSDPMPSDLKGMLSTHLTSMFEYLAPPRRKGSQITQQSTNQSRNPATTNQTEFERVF

[4] = test system: EGFR (human), P00533 [A750P; 747-749 del]
CSK (human) = CSK (human) (UniProt P41240)
MAPK8 (human) = MAPK8 (human) (UniProt P45983)
MAPK8 (human), sequence (P45983 whole entry, looked up): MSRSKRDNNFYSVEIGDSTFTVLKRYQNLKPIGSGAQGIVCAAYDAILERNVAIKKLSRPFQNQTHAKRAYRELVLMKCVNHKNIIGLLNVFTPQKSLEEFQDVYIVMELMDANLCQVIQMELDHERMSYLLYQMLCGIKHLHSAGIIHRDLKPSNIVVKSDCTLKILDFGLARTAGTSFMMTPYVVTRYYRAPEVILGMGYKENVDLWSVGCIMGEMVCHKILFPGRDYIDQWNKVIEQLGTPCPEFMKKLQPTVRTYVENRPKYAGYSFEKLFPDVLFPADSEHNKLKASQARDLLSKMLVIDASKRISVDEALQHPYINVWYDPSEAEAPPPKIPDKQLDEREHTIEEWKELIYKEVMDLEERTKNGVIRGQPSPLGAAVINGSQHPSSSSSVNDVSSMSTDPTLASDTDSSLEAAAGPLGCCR

FRK (human) = FRK (human) (UniProt P42685)
CHUK (human) = CHUK (human) (UniProt O15111)
LTK (human) = LTK (human) (UniProt P29376)
TAOK1 (human) = TAOK1 (human) (UniProt Q7L7X3)
[5] = molecular target: JAK2 JH1 catalytic (human) (UniProt O60674)
EPHA3 (human) = EPHA3 (human) (UniProt P29320)
PRKG1 (human) = PRKG1 (human) (UniProt Q13976)
MINK1 (human) = MINK1 (human) (UniProt Q8N4C8)
RIOK3 (human) = RIOK3 (human) (UniProt O14730)
ROS1 (human) = ROS1 (human) (UniProt P08922)
PRKD1 (human) = PRKD1 (human) (UniProt Q15139)
BMPR1B (human) = BMPR1B (human) (UniProt O00238)
BMPR1B (human), sequence (O00238 whole entry, looked up): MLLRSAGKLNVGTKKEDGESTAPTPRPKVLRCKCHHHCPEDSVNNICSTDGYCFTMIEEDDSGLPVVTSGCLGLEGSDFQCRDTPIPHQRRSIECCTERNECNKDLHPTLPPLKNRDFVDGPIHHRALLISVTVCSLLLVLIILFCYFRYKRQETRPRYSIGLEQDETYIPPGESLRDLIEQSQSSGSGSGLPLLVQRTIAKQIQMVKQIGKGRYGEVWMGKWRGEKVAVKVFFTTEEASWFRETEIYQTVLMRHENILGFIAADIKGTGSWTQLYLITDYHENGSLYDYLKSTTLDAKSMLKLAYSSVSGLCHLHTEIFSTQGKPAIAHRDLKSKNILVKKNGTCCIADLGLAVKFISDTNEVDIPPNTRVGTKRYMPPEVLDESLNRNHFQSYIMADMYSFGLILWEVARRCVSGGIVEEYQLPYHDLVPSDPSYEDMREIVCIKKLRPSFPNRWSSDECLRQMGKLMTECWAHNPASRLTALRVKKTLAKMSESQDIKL

ACVR1 (human) = ACVR1 (human) (UniProt Q04771)
DAPK1 (human) = DAPK1 (human) (UniProt P53355)
RPS6KA4 KD1 (human) = RPS6KA4 KD1 (human) (UniProt O75676)
MST1R (human) = MST1R (human) (UniProt Q04912)
STK17B (human) = STK17B (human) (UniProt O94768)
NTRK1 (human) = NTRK1 (human) (UniProt P04629)
NTRK1 (human), sequence (P04629 whole entry, looked up): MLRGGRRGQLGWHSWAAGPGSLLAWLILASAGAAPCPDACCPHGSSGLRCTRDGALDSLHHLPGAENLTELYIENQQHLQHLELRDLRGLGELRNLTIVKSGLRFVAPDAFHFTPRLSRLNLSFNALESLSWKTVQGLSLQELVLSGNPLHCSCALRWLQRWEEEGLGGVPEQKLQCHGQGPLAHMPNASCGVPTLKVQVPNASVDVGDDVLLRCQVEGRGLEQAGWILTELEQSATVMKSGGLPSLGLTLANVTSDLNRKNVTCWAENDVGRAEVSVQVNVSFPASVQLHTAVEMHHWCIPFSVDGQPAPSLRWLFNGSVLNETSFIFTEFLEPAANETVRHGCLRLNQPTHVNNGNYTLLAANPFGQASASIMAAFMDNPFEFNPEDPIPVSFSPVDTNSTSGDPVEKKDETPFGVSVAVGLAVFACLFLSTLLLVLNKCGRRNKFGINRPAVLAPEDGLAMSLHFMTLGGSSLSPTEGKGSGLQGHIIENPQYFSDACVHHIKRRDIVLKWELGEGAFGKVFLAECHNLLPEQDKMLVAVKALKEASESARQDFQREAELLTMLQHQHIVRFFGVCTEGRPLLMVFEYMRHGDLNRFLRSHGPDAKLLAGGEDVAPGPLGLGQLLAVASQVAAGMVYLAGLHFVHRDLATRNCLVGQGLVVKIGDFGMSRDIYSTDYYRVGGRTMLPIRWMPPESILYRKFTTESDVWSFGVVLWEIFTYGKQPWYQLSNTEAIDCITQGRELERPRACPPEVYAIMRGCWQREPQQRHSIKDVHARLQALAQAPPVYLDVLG

LIMK2 (human) = LIMK2 (human) (UniProt P53671)
RIOK1 (human) = RIOK1 (human) (UniProt Q9BRS2)
MAP2K3 (human) = MAP2K3 (human) (UniProt P46734)
PIK3CB (human) = PIK3CB (human) (UniProt P42338)
CLK3 (human) = CLK3 (human) (UniProt P49761)
MAP3K9 (human) = MAP3K9 (human) (UniProt P80192)
MAP3K9 (human), sequence (P80192 whole entry, looked up): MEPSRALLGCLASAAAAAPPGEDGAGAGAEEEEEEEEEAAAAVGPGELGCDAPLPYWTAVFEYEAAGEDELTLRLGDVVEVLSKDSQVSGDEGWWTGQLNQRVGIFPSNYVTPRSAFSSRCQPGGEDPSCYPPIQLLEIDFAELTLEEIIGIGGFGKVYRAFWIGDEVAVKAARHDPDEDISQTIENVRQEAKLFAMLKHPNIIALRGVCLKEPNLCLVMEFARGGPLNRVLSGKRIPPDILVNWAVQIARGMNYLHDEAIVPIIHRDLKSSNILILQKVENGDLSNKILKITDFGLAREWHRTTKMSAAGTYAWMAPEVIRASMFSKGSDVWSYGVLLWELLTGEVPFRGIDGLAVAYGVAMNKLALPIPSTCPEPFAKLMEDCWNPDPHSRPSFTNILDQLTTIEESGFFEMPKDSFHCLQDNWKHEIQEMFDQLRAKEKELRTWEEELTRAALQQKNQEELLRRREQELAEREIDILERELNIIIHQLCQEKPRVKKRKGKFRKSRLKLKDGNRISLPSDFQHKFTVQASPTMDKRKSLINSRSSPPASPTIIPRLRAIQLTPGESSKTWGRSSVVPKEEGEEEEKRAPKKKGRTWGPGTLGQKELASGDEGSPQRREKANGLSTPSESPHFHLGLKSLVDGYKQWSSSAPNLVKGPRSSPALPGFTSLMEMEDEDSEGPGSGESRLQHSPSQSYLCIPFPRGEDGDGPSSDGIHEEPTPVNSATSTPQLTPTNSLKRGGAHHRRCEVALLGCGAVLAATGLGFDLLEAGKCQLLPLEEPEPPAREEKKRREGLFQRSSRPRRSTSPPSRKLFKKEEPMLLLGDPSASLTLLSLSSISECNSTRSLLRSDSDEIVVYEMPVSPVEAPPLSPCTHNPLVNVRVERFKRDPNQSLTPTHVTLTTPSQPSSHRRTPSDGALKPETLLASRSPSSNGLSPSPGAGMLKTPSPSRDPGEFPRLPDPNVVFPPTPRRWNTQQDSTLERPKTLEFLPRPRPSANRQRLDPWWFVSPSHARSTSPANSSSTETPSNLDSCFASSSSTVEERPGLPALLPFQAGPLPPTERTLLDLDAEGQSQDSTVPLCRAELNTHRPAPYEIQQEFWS

MERTK (human) = MERTK (human) (UniProt Q12866)
MYLK3 (human) = MYLK3 (human) (UniProt Q32MK0)
DCLK1 (human) = DCLK1 (human) (UniProt O15075)

KIT (human), P10721 [V559D], sequence (P10721 whole entry V559D, looked up): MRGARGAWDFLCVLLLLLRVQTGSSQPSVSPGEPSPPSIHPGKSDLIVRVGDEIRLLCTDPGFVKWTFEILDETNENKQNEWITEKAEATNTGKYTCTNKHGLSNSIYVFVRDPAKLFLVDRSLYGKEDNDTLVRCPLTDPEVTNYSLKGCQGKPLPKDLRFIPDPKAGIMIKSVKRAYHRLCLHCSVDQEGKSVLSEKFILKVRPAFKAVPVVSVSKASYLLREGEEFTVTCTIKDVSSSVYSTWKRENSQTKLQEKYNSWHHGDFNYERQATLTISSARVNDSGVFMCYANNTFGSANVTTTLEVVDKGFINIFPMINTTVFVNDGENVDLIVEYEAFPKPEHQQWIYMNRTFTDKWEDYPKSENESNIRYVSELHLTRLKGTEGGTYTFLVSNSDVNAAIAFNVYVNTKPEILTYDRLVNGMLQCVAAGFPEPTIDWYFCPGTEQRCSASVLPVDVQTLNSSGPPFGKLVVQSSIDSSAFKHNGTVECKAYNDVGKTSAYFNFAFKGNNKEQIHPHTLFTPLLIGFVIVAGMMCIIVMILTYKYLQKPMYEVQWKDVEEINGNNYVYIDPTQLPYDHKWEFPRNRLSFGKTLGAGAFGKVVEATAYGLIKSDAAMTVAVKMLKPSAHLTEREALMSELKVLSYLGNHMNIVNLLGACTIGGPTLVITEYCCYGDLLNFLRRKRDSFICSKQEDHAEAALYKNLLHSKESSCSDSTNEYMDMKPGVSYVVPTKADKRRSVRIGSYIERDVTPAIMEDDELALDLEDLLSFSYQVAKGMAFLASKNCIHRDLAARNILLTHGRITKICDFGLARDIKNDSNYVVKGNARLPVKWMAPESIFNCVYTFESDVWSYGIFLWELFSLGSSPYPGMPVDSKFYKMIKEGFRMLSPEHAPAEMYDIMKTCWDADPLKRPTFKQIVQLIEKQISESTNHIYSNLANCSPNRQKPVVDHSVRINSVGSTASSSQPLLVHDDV

kinase still bound, per cent of control [1]: 8.4%
kinase still bound, per cent of control (KDR (human)): 1.5%
kinase still bound, per cent of control [2]: 0%
kinase still bound, per cent of control (RAF1 (human)): 7%
kinase still bound, per cent of control (FGFR3 (human)): 9.4%
kinase still bound, per cent of control (RPS6KA5 KD1 (human)): 4.7%
kinase still bound, per cent of control (CDKL2 (human)): 0.9%
kinase still bound, per cent of control (TNK1 (human)): 0.35%
kinase still bound, per cent of control [3]: 12%
kinase still bound, per cent of control (DDR2 (human)): 5.1%
kinase still bound, per cent of control (ALK (human)): 0.55%
kinase still bound, per cent of control (CDK9 (human)): 5.8%
kinase still bound, per cent of control [4]: 1.5%
kinase still bound, per cent of control (CSK (human)): 0.45%
kinase still bound, per cent of control (MAPK8 (human)): 0%
kinase still bound, per cent of control (FRK (human)): 0.7%
kinase still bound, per cent of control (CHUK (human)): 0.95%
kinase still bound, per cent of control (LTK (human)): 1.2%
kinase still bound, per cent of control (TAOK1 (human)): 3%
kinase still bound, per cent of control [5]: 2.4%
kinase still bound, per cent of control (EPHA3 (human)): 3.4%
Compound: CCN1CCN(Cc2ccc(NC(=O)c3ccc(C)c(Oc4ccnc5[nH]ccc45)c3)cc2C(F)(F)F)CC1

Compound: CCOc1cc(N2CCC(N3CCCCC3)CC2)ccc1Nc1nc(Nc2ccccc2S(=O)(=O)C(C)C)c2cn[nH]c2n1
kinase still bound, per cent of control [1]: 20%
kinase still bound, per cent of control (KDR (human)): 100%
kinase still bound, per cent of control (PRKG1 (human)): 100%
kinase still bound, per cent of control [2]: 86%
kinase still bound, per cent of control (MINK1 (human)): 71%
kinase still bound, per cent of control (RAF1 (human)): 100%
kinase still bound, per cent of control (FGFR3 (human)): 94%
kinase still bound, per cent of control (RIOK3 (human)): 88%
kinase still bound, per cent of control (ROS1 (human)): 5.8%
kinase still bound, per cent of control (RPS6KA5 KD1 (human)): 100%
kinase still bound, per cent of control (PRKD1 (human)): 73%
kinase still bound, per cent of control (CDKL2 (human)): 91%
kinase still bound, per cent of control (TNK1 (human)): 2.4%
kinase still bound, per cent of control [3]: 81%
kinase still bound, per cent of control (BMPR1B (human)): 49%
kinase still bound, per cent of control (DDR2 (human)): 93%
kinase still bound, per cent of control (ACVR1 (human)): 60%
kinase still bound, per cent of control (DAPK1 (human)): 60%
kinase still bound, per cent of control (ALK (human)): 34%
kinase still bound, per cent of control (RPS6KA4 KD1 (human)): 100%
kinase still bound, per cent of control (CDK9 (human)): 100%
kinase still bound, per cent of control (MST1R (human)): 100%
kinase still bound, per cent of control (STK17B (human)): 100%
kinase still bound, per cent of control [4]: 10%
kinase still bound, per cent of control (NTRK1 (human)): 72%
kinase still bound, per cent of control (LIMK2 (human)): 51%
kinase still bound, per cent of control (CSK (human)): 100%
kinase still bound, per cent of control (RIOK1 (human)): 100%
kinase still bound, per cent of control (MAP2K3 (human)): 7%
kinase still bound, per cent of control (PIK3CB (human)): 17%
kinase still bound, per cent of control (MAPK8 (human)): 4.3%
kinase still bound, per cent of control (CLK3 (human)): 50%
kinase still bound, per cent of control (MAP3K9 (human)): 94%
kinase still bound, per cent of control (FRK (human)): 18%
kinase still bound, per cent of control (MERTK (human)): 100%
kinase still bound, per cent of control (CHUK (human)): 100%
kinase still bound, per cent of control (MYLK3 (human)): 100%
kinase still bound, per cent of control (LTK (human)): 1.7%
kinase still bound, per cent of control (TAOK1 (human)): 33%
kinase still bound, per cent of control (DCLK1 (human)): 5.2%
kinase still bound, per cent of control [5]: 50%
kinase still bound, per cent of control (EPHA3 (human)): 100%

kinase still bound, per cent of control [1]: 0%
kinase still bound, per cent of control (KDR (human)): 2.2%
kinase still bound, per cent of control (PRKG1 (human)): 1.3%
kinase still bound, per cent of control [2]: 0.1%
kinase still bound, per cent of control (MINK1 (human)): 40%
kinase still bound, per cent of control (RAF1 (human)): 40%
kinase still bound, per cent of control (FGFR3 (human)): 2.6%
kinase still bound, per cent of control (RIOK3 (human)): 3.2%
kinase still bound, per cent of control (ROS1 (human)): 0.45%
kinase still bound, per cent of control (RPS6KA5 KD1 (human)): 40%
kinase still bound, per cent of control (PRKD1 (human)): 1%
kinase still bound, per cent of control (CDKL2 (human)): 40%
kinase still bound, per cent of control (TNK1 (human)): 0.45%
kinase still bound, per cent of control (BMPR1B (human)): 1.2%
kinase still bound, per cent of control (DDR2 (human)): 14%
kinase still bound, per cent of control (ACVR1 (human)): 0%
kinase still bound, per cent of control (DAPK1 (human)): 6.4%
kinase still bound, per cent of control (RPS6KA4 KD1 (human)): 4.4%
kinase still bound, per cent of control (CDK9 (human)): 40%
kinase still bound, per cent of control (MST1R (human)): 3%
kinase still bound, per cent of control (STK17B (human)): 40%
kinase still bound, per cent of control [4]: 0%
kinase still bound, per cent of control (NTRK1 (human)): 12%
kinase still bound, per cent of control (LIMK2 (human)): 6.5%
kinase still bound, per cent of control (CSK (human)): 2%
kinase still bound, per cent of control (RIOK1 (human)): 2.6%
kinase still bound, per cent of control (MAP2K3 (human)): 0.8%
kinase still bound, per cent of control (PIK3CB (human)): 40%
kinase still bound, per cent of control (MAPK8 (human)): 5.2%
kinase still bound, per cent of control (CLK3 (human)): 3%
kinase still bound, per cent of control (MAP3K9 (human)): 0.35%
kinase still bound, per cent of control (FRK (human)): 0.2%
kinase still bound, per cent of control (MERTK (human)): 0%
kinase still bound, per cent of control (CHUK (human)): 40%
kinase still bound, per cent of control (MYLK3 (human)): 40%
kinase still bound, per cent of control (LTK (human)): 0%
kinase still bound, per cent of control (TAOK1 (human)): 0.1%
kinase still bound, per cent of control (DCLK1 (human)): 0%
kinase still bound, per cent of control (EPHA3 (human)): 40%
Compound: COc1cc(N2CCC(N3CCN(C)CC3)CC2)ccc1Nc1ncc(Cl)c(Nc2ccccc2S(=O)(=O)C(C)C)n1

Compound: CCN1CCN(Cc2ccc(NC(=O)c3ccc(C)c(/C=C/c4cnc(Nc5cc(N6CCNCC6)nc(C)n5)cn4)c3)cc2C(F)(F)F)CC1
kinase still bound, per cent of control [1]: 17%
kinase still bound, per cent of control (KDR (human)): 37%
kinase still bound, per cent of control (PRKG1 (human)): 100%
kinase still bound, per cent of control [2]: 0.05%
kinase still bound, per cent of control (MINK1 (human)): 4.3%
kinase still bound, per cent of control (RAF1 (human)): 43%
kinase still bound, per cent of control (FGFR3 (human)): 12%
kinase still bound, per cent of control (RIOK3 (human)): 78%
kinase still bound, per cent of control (ROS1 (human)): 100%
kinase still bound, per cent of control (RPS6KA5 KD1 (human)): 100%
kinase still bound, per cent of control (PRKD1 (human)): 90%
kinase still bound, per cent of control (CDKL2 (human)): 0.15%
kinase still bound, per cent of control (TNK1 (human)): 13%
kinase still bound, per cent of control [3]: 1.8%
kinase still bound, per cent of control (BMPR1B (human)): 77%
kinase still bound, per cent of control (DDR2 (human)): 0%
kinase still bound, per cent of control (ACVR1 (human)): 100%
kinase still bound, per cent of control (DAPK1 (human)): 85%
kinase still bound, per cent of control (ALK (human)): 100%
kinase still bound, per cent of control (RPS6KA4 KD1 (human)): 100%
kinase still bound, per cent of control (CDK9 (human)): 99%
kinase still bound, per cent of control (MST1R (human)): 85%
kinase still bound, per cent of control (STK17B (human)): 2%
kinase still bound, per cent of control [4]: 2.9%
kinase still bound, per cent of control (NTRK1 (human)): 0.45%
kinase still bound, per cent of control (LIMK2 (human)): 9.6%
kinase still bound, per cent of control (CSK (human)): 0.55%
kinase still bound, per cent of control (RIOK1 (human)): 100%
kinase still bound, per cent of control (MAP2K3 (human)): 100%
kinase still bound, per cent of control (PIK3CB (human)): 85%
kinase still bound, per cent of control (MAPK8 (human)): 24%
kinase still bound, per cent of control (CLK3 (human)): 100%
kinase still bound, per cent of control (MAP3K9 (human)): 21%
kinase still bound, per cent of control (FRK (human)): 7%
kinase still bound, per cent of control (MERTK (human)): 31%
kinase still bound, per cent of control (CHUK (human)): 0%
kinase still bound, per cent of control (MYLK3 (human)): 59%
kinase still bound, per cent of control (LTK (human)): 100%
kinase still bound, per cent of control (TAOK1 (human)): 7%
kinase still bound, per cent of control (DCLK1 (human)): 97%
kinase still bound, per cent of control [5]: 29%
kinase still bound, per cent of control (EPHA3 (human)): 4.4%
